From publication PMC6680932, “Structure–Antioxidant–Antiproliferative Activity Relationships of Natural C7 and C7–C8 Hydroxylated Flavones and Flavanones” (Antioxidants, 2019)

What was measured:
[1] = system: HLMEC (lung microvascular endothelial cells); experiment: Antiproliferative activity in vitro, SRB assay; type: cell-based, human; details: Homo sapiens, Endothelial cell; 72 h exposure, SRB; normal cell line; read-out: IC50 ± SD HLMEC
Experimental: (§1) The antiproliferative studies were performed in vitro using human cancer cell lines—MV-4-11 (biphenotypic B myelomonocytic leukemia), MCF7 (breast carcinoma), LoVo (colon cancer), LoVo/DX (colon cancer doxorubicin-resistant), and DU 145 (prostate cancer)—and normal human cell lines—MCF 10A (breast cells) and HLMEC (lung microvascular endothelial cells). The cell lines MV-4-11, LoVo, DU 145, and MCF 10A were obtained from the American Type Culture Collection (Rockville, Maryland, USA), MCF7 from the European Collection of Authenticated Cell Cultures (ECACC, Salisbury, UK), LoVo/DX courtesy of Professor E. Borowski (Technical University of Gdansk, Poland), and HLMECs (which had been already immortalized by transfection with pSV3-neoplasmid containing large T-antigen gene) were the kind gift of Professor Claudine Kieda (Center for Molecular Biophysics, Orleans, France). The cell lines are being maintained in the Hirszfeld Institute of Immunology and Experimental Therapy, Polish Academy of Sciences (HIIET, PAS), Wroclaw, Poland. All cell lines were grown at 37 °C with 5% CO2 humidified atmosphere. The MV-4-11 cells were cultured in RPMI 1640 medium with GlutaMAX (Gibco, Scotland, UK), supplemented with 1 mM sodium pyruvate and 10% fetal bovine serum (both from Sigma-Aldrich, Poznan, Poland). The MCF7 cells were cultured in Eagle medium (HIIET, PAS, Wroclaw, Poland) supplemented with 2 mM L-glutamine, 10% fetal bovine serum, 1% nonessential amino acid solution, and 0.8 mg/L of insulin (all from Sigma-Aldrich, Poznan, Poland). The LoVo and LoVo/DX cells were cultured in a 1:1 (v/v) mixture of RPMI 1640 and Opti-MEM (both HIIET, PAS, Wroclaw, Poland), supplemented with 1 mM sodium pyruvate, 2 mM L-glutamine, and 5% fetal bovine serum (all from Sigma-Aldrich, Poznan, Poland). For LoVo/DX cells, additionally 10 µg/100 mL of doxorubicin (Accord Healthcare) was added to the medium. DU 145 cells were cultured in Eagle medium (HIIET, PAS, Wroclaw, Poland) supplemented with 1 mM sodium pyruvate, 4 mM L-glutamine, and 10% fetal bovine serum (all from Sigma-Aldrich, Poznan, Poland). The MCF 10A cells were cultured in the F-12 nutrient mixture (Gibco, Scotland, UK), supplemented with 5% horse serum (Gibco, Scotland, UK), 0.05 μg/mL of cholera toxin (Vibrio cholerae), 0.5 μg/mL of hydrocortisone, 10 μg/mL of insulin, and 20 ng/mL of human epidermal growth factor (all from Sigma-Aldrich, Poznan, Poland). The HLMEC cells were cultured in the RPMI 1640 medium (HIIET, PAS, Wroclaw, Poland) with the addition of 2 mM L-glutamine (Sigma-Aldrich, Poznan, Poland) and 10% fetal bovine serum (GE Healthcare). All culture media were supplemented with 100 units/mL penicillin (Polfa Tarchomin S.A., Warsaw, Poland) and 100 µg/mL streptomycin (Sigma-Aldrich, Poznan, Poland). Twenty-four hours before addition of the tested agents, the cells were plated in 96-well plates (Sarstedt, Germany) at a density of 1 × 10^4 (1 × 10^3 for HLMEC and 0.75 × 10^4 for MCF7) cells per well in 100 μL of culture medium.
(§2) Tested compounds were dissolved in DMSO and then diluted in a 1:1 (v/v) mixture of RPMI 1640 (HIIET, PAS, Wroclaw, Poland) and Opti-MEM (Gibco, Scotland, UK) medium supplemented with 2 mM L-glutamine (Sigma-Aldrich, Poznan, Poland), 5% fetal bovine serum (GE Healthcare), 100 units/mL penicillin (Polfa Tarchomin S.A., Warsaw, Poland), and 100 µg/mL streptomycin (Sigma-Aldrich, Poznan, Poland). The antiproliferative effects of the flavonoids were examined after 72 h of exposure of the cultured cells to varying concentrations of the tested agents (from 0.1 to 100 μg/mL) using the MTT (for MV-4-11 cells) or SRB assay described below. Cisplatin (chemotherapy drug used to treat a number of cancers) was used as a positive control. The results are presented as an inhibitory concentration 50 (IC50), which is the concentration of the tested agent that inhibits proliferation of the cell population by 50%. IC50 values for each experiment were calculated separately. […]

LoVo (colon cancer) = experiment: Antiproliferative activity in vitro, SRB assay; type: cell-based, human; details: Homo sapiens, LoVo, 72 h, 72 h exposure, SRB; read-out: IC50 ± SD LoVo
Experimental: as §1, §2

[2] = system: MV-4-11 (biphenotypic B myelomonocytic leukemia); experiment: Antiproliferative activity in vitro, MTT assay; type: cell-based, human; details: Homo sapiens, MV4-11, 72 h exposure, read-out: IC50 ± SD MV-4-11
[3] = Stability of flavonoids in DMSO (control), HPLC; type: physicochemical; details: 3 h of incubation
Experimental: Flavonoids were dissolved (as described in Section 2.4) to the concentration of 100 µg/mL. The solutions corresponding to the solutions before the administration to the cell cultures were incubated in 96-well plates for 3 h and transferred to microtubes containing 400 µL of cold methanol (−20 °C) and kept at −20 °C for 1 h. After centrifugation at 12,000× g for 10 min, samples were analyzed by HPLC. Control experiments were also carried out to determine the stability of flavonoids in DMSO under analogous conditions.

[4] = DPPH free radical scavenging activity assay; details: 10 min, 517 nm; mean ± SD
Experimental: The antioxidant capacity of flavonoids was measured in three separate tests: ABTS, DPPH, and ferric ion reducing antioxidant power (FRAP) assays (ABTS, DPPH, and FRAP reagents from Sigma-Aldrich). All tested compounds were dissolved in DMSO. All determinations were performed in triplicate. Standard curves were prepared for all assays using different concentrations of Trolox (6-hydroxy-2,5,7,8-tetramethylchroman-2-carboxylic acid) (Sigma-Aldrich). Trolox is a water-soluble analogue of vitamin E with high antioxidant activity, commonly used as a control and a reference in studies of antioxidant activity. The results were expressed as the equivalent of μmol Trolox per μmol of the test compound. The absorbance was measured using a UV-2401 PC spectrophotometer (Shimadzu, Kyoto, Japan). Concentrations of the tested samples were in the range from 50 µg/mL to 10 mg/mL.
The DPPH (2,2-diphenyl-1-picrylhydrazyl) radical scavenging activity of samples was determined according to the method described by Yen and Chen with some modifications. Samples (0.1 mL) of known concentration were mixed in polystyrene cuvettes with 2 mL of 0.04 mM DPPH in ethanol and 0.4 mL of ethanol. The absorbance was measured after 10 min at λ = 517 nm. The DPPH reagent was freshly prepared before each experiment.

[5] = system: LoVo/DX (colon cancer doxorubicin-resistant); experiment: Antiproliferative activity in vitro, SRB assay; type: cell-based, human; details: Homo sapiens, LoVo/DX, 72 h exposure, read-out: IC50 ± SD LoVo/DX

IC50 (LoVo (colon cancer)) [µM]	IC50 [2] [µM]	compound observed after incubation in DMSO [3]	IC50 [5] [µM]	Compound	IC50 [1] [µM]	TEAC DPPH [4]
121 ± 4.3	146 ± 19.1	over 99%	129 ± 9.74	O=C1C[C@@H](c2ccc(O)cc2)Oc2cc(O)cc(O)c21 [Compound 6, naringenin]	114 ± 18.6	0.017 ± 0.002 µmol trolox per µmol of tested
235 ± 57.1		over 99%		O=c1cc(-c2ccc(O)cc2)oc2c(O)c(O)cc(O)c12 [Compound 10, 8-hydroxyapigenin]	122 ± 14.4	5.560 ± 0.121 µmol trolox per µmol of tested
13.8 ± 1.38	8.18 ± 2.76	over 99%	11.6 ± 1.35	O=c1cc(-c2ccc(O)cc2)oc2cc(O)cc(O)c12 [Compound 2, apigenin]	14.1 ± 0.91	0.005 ± 0.002 µmol trolox per µmol of tested
